The target of series [1] is T1, Aβ (1-40) peptide aggregation / fibril formation (Homo sapiens, UniProt P05067).
T1 construct: Aβ(1-40) fibrils prepared from Aβ40 with seed incubated at 37° C. for an hour in buffer
Put plainly: TIRFM study of inhibition of Aβ fibril formation. It counts as biochemical. Conditions: for inhibition of Aβ peptide aggregation and fibril growth: TIRFM, ThT dye excited at 445 nm. An excerpt: These images were obtained by an addition of ThT dye excited at 445 nm.
The panels below show the images of seed only and Aβ fibril formation without the carbazole-based fluorophore for comparison. These images were obtained by an addition of ThT dye excited at 445 nm.
A novel series of water-soluble carbazole-based fluorophores has been designed and developed. […] Upon binding with Aβ peptides, there is about 8- to about 82-fold increase in fluorescence intensity concomitant with the substantial blue shifts (Δλ=14-22 nm) in the emission spectra of the fluorophores (FIG. 2A-2H). […] (e.g. Ffibril/FSLOH=81.5 vs. Fpeptide/FSLOH=6.3). Because of such strong increase in fluorescence, the signal-to-noise ratio is so high that imaging of single fibrils is possible. (FIG. 3A-3C) Compared to common commercial labeling dyes for Aβ such as Thioflavin-T and Congo Red, the carbazole-based fluorophores of the present invention provide an advantage of a wide range of excitation and emission tuning in visible to infra-red region (FIG. 4A-4B). Some of these molecules, e.g., SAM and SAOH, even emit at ˜[…] (FIG. 5A-5B), which can potentially be used for near infra-red fluorescence imaging. In addition to fluorescence titration, the binding of Aβ peptide and fibril with the carbazole-based fluorophores of the present invention were further confirmed by circular dichroism spectroscopy (FIG. 6A-6B), and electrospray ionization-mass spectrometry (ESI-MS). Total Internal Reflection Fluorescence Microscope (TIRFM) technique developed by us was used to investigate the inhibition effects of these functional fluorophores on Aβ fibril formation (FIG. 7A-7F). […] Such inhibitory effect was further confirmed by Transmission Electron Microscopy (TEM) study (FIG. 8A-8B).
The inhibitory effect of the carbazole-based fluorophores of the present invention on Aβ fibril growth was further investigated by measuring the (average) length of the Aβ fibrils formed after incubation of the Aβ monomers for 60 min with additions of SLOH at different time points during this period (FIG. 9A-9B). Parallel experiments conducted without any addition of SLOH were used as controls.
Total Internal Reflection Fluorescence Microscope (TIRFM) technique developed was used to investigate the inhibition effects of these functional fluorophores on Aβ (1-40) fibril formation (FIG. 17).

Series [2] can be described thus: Blood-brain barrier penetration after tail vein injection. It counts as in vivo. The conditions noted are these: mice. An excerpt: (§1) However, in order for the observed neuroprotective effect to be clinically useful, these molecules need to be able to pass through the blood-brain barrier.
The nature of series [3]: Fluorescence spectra in phosphate buffer solution. It counts as physicochemical. The source says:
(§2) A novel series of water-soluble carbazole-based fluorophores has been designed and developed. […] Upon binding with Aβ peptides, there is about 8- to about 82-fold increase in fluorescence intensity concomitant with the substantial blue shifts (Δλ=14-22 nm) in the emission spectra of the fluorophores (FIG. 2A-2H). […] (e.g. Ffibril/FSLOH=81.5 vs. Fpeptide/FSLOH=6.3). Because of such strong increase in fluorescence, the signal-to-noise ratio is so high that imaging of single fibrils is possible. (FIG. 3A-3C) Compared to common commercial labeling dyes for Aβ such as Thioflavin-T and Congo Red, the carbazole-based fluorophores of the present invention provide an advantage of a wide range of excitation and emission tuning in visible to infra-red region (FIG. 4A-4B). Some of these molecules, e.g., SAM and SAOH, even emit at ˜[…] (FIG. 5A-5B), which can potentially be used for near infra-red fluorescence imaging. In addition to fluorescence titration, the binding of Aβ peptide and fibril with the carbazole-based fluorophores of the present invention were further confirmed by circular dichroism spectroscopy (FIG. 6A-6B), and electrospray ionization-mass spectrometry (ESI-MS). Total Internal Reflection Fluorescence Microscope (TIRFM) technique developed by us was used to investigate the inhibition effects of these functional fluorophores on Aβ fibril formation (FIG. 7A-7F). […]

In series [4] the test system is primary cortical neural cells. Put plainly: Protection from Aβ-induced cytotoxicity. It counts as cell-based. Conditions: Aβ monomer, oligomers and fibrils. The source says: (§3) The reactive oxygen species (ROS) induced by the Aβ toxicity causes much damage in AD.
For series [5], the system named is ROS in primary cortical cells. As to the kind of experiment: Reduction of ROS induced by Aβ species. It counts as cell-based.
Excerpt: as §3

The test system of the next series is Aβ plaques. As to the kind of experiment: Aβ plaque targeting in brain, co-stained with ThT or Aβ antibody. It counts as in vivo, transgenic mice. Conditions: brain slides co-stained with ThT or Aβ antibody with DAB stain.
Excerpt: as §1
(A) Differential Interference Contrast (DIC) image of the brain slice of a 12-month-old APP/PS1 Tg mouse. (B) Histological staining of the brain slice with SLCOOH-conjugated SiO2@Fe3O4 nanoparticles (λex=500 nm, λem=620-680 nm). (C) ThT fluorescence images of the brain slice captured with λex=405 nm, λem=460-490 nm (D) The superimposed images of (B) and (C).

The subject of series [6] is SH-SY5Y neuronal cell. Put plainly: MTT reduction assay, cytotoxicity. As to the method: Human neuroblastoma SH-SY5Y neuronal cells were incubated with different concentrations of SLCOOH-conjugated SiO2@Fe3O4 nanoparticles at 37° C. for 24 h.
Series [7] concerns Aβ(1-40) and Aβ(1-42) peptides. Put plainly: Fluorescence titration of the fluorophores with Aβ peptides. It counts as binding. The conditions noted are these: Aβ peptide.
Excerpt: as §2

The test system of series [8] is SH-SY5Y neuronal cell. As to the kind of experiment: Protection of neuronal cells from Aβ oligomer and fibril toxicity. It counts as cell-based, Human. The conditions noted are these: incubated for 2 and 6 hours.
A further series deals with T2, Aβ(1-40) fibrils (Homo sapiens, UniProt P05067).
T2 construct: Aβ(1-40) fibrils prepared from Aβ40 with seed incubated at 37° C. for an hour in buffer
T2 sequence (P05067 672-711): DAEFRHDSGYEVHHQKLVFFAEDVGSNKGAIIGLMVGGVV
As to the kind of experiment: Fluorescence titration of the fluorophores with Aβ fibrils. It counts as binding.
Excerpt: as §2

Entries after “also recorded” stand apart in the source; their conditions may differ.

T1 sequence (P05067 672-711): as above

Turning to `COCCOCCn1c2ccccc2c2cc(/C=C/c3cc[n+](CCCO)c4ccccc34)ccc21` [SLOH-Pr, (E)-1-(3-hydroxypropyl)-4-(2-(9-(2-(2-methoxyethoxy)ethyl)-9H-carbazol-3-yl)vinyl)-quinolinium bromide], the “inhibition of Aβ peptide aggregation and fibril growth” value (“inhibition” for short) in series [1] is “inhibit Aβ peptide aggregation and prevent fibril growth”.
`CCOC(=O)C[n+]1ccc(/C=C/c2ccc3c(c2)c2ccccc2n3CCOCCOC)c2ccccc21` [SLAce, (E)-1-(2-Ethoxy-2-oxoethyl)-4-(2-(9-(2-(2-methoxyethoxy)ethyl)-9H-carbazol-3-yl)vinyl)quinolin-1-ium bromide]: the “inhibition” value in series [1] is “inhibit Aβpeptide aggregation and prevent fibril growth; also recorded: inhibit Aβ (1-40) peptide aggregation and prevent fibril growth”. In series [2], the “ability to penetrate the blood-brain barrier” value (“ability” below) is reported as “show blood-brain permeability”.
For `CC[n+]1ccc(/C=C/c2ccc3c(c2)c2ccccc2n3CCOCCOC)c2ccccc21` [SLE, (E)-1-ethyl-4-(2-(9-(2-(2-methoxyethoxy)ethyl)-9H-carbazol-3-yl)vinyl)quinolinium bromide], the “inhibition” value in series [1] is “inhibit Aβ peptide aggregation and prevent fibril growth”.
With `COCCOCCn1c2ccccc2c2cc(/C=C/c3c4ccccc4[n+](C)c4ccccc34)ccc21.[I-]` [SAM, (E)-9-(2-(9-(2-(2-methoxyethoxy)ethyl)-9H-carbazol-3-yl)vinyl)-10-methylacridinium iodide], the emission wavelength in series [3] was around 760 nm. Also, the “inhibition” value in series [1] is “inhibit Aβ peptide aggregation and prevent fibril growth”.
`Cn1c2ccccc2c2cc(/C=C/c3cc[n+](C)c4ccccc34)ccc21` [Me-SLM, (E)-1-methyl-4-(2-(9-methyl-9H-carbazol-3-yl)vinyl)quinolinium iodide]: the “inhibition” value in series [1] is “inhibit Aβ peptide aggregation and prevent fibril growth”.
As for `COCCOCCn1c2ccccc2c2cc(/C=C/c3cc[n+](CCOCCOC)c4ccccc34)ccc21` [SLG, (E)-1-(2-(2-methoxyethoxy)ethyl)-4-(2-(9-(2-(2-methoxyethoxy)ethyl)-9H-carbazol-3-yl)vinyl)quinolinium iodide], the “inhibition” value in series [1] is “inhibit Aβpeptide aggregation and prevent fibril growth; also recorded: inhibit Aβ (1-40) peptide aggregation and prevent fibril growth”. Further, the “ability” value in series [2] was “show blood-brain permeability”.
On to `COCCOCCn1c2ccccc2c2cc(/C=C/c3cc[n+](CC(N)=O)c4ccccc34)ccc21` [SLAD, (E)-1-(2-Amino-2-oxoethyl)-4-(2-(9-(2-(2-methoxyethoxy)ethyl)-9H-carbazol-3-yl)vinyl)quinolin-1-ium bromide], for which, in [4], the “protection from the neurotoxic effects of the Aβ species” value was “protected from the neurotoxic effects of the Aβ species; also recorded: protective effect against the neurotoxic activities of the Aβ oligomers and fibrils”. The “inhibition” value in series [1] was “inhibit Aβpeptide aggregation and prevent fibril growth; also recorded: inhibit Aβ (1-40) peptide aggregation and prevent fibril growth; also recorded: potent Aβ aggregation inhibitors”. In series [2], the “ability” value is “show blood-brain permeability; also recorded: ability to cross the blood-brain barrier”. The “reduction of ROS induced by the Aβ species” value in series [5] is recorded as “reduce the ROS induced by the Aβ species”. The “targeting of / selectivity towards Aβ plaques in brain” value in the series with Aβ plaques was “target the Aβ plaques; also recorded: colocalization of fluorescence signals of SLAD and Aβ antibody”. Also, the “toxicity (in words)” value in the series on SH-SY5Y neuronal cell [6] is “non-toxic”.
For the molecule `COCCOCCn1c2ccccc2c2cc(/C=C/c3cc[n+](CC(=O)O)c4ccccc34)ccc21.[Br-]` [SLCOOH, (E)-1-(carboxymethyl)-4-(2-(9-(2-(2-methoxyethoxy)ethyl)-9H-carbazol-3-yl)vinyl)quinolin-1-ium bromide], the “ability” value in series [2] is “BBB penetrable”. Besides, in the series on Aβ plaques, the “targeting of / selectivity towards Aβ plaques in brain” value was “able to target the Aβ species in-vivo with high affinity”. Also, the “toxicity (in words)” value in the series with SH-SY5Y neuronal cell [6] was “non-toxic”.
On to `COCCOCCn1c2ccc(F)cc2c2cc(/C=C/c3cc[n+](CCO)c4ccccc34)ccc21` [F-SLOH, (E)-4-(2-(6-Fluoro-9-(2-(2-methoxyethoxy)ethyl)-9H-carbazol-3-yl)vinyl)-1-(2-hydroxyethyl)quinolin-1-ium chloride], for which the “protection from the neurotoxic effects of the Aβ species” value in [4] was “protected from the neurotoxic effects of the Aβ species; also recorded: protective effect against the neurotoxic activities of the Aβ oligomers and fibrils”. Further, the “inhibition” value in [1] is “inhibit Aβpeptide aggregation and prevent fibril growth; also recorded: inhibit Aβ (1-40) peptide aggregation and prevent fibril growth; also recorded: potent Aβ aggregation inhibitors”. Moreover, in series [2], the “ability” value is reported as “show blood-brain permeability; also recorded: ability to cross the blood-brain barrier”. For the same molecule, in [5], the “reduction of ROS induced by the Aβ species” value is listed as “reduce the ROS induced by the Aβ species”. For the same molecule, in the series on Aβ plaques, the “targeting of / selectivity towards Aβ plaques in brain” value is “target the Aβ plaques”. Moreover, in the series with SH-SY5Y neuronal cell [6], the “toxicity (in words)” value is reported as “non-toxic”.
As for `COCCOCCn1c2ccccc2c2cc(/C=C/c3cc[n+](CCO)c4ccccc34)ccc21` [SLOH, (E)-1-(2-hydroxyethyl)-4-(2-(9-(2-(2-methoxyethoxy)ethyl)-9H-carbazol-3-yl)vinyl)-quinolinium chloride], the “Aβ fibril growth (average fibril length) on addition of the compound” value in [1] (50 μM added at different time points within 60 min incubation of Aβ monomer) is listed as “strongly arrests its fibril growth”. Moreover, the “inhibition” value in series [1] is “inhibition of Aβ fibril formation; also recorded: inhibit Aβ peptide aggregation and prevent fibril growth; also recorded: potent inhibitor of Aβ aggregation”. Also, the Fpeptide/FSLOH fluorescence enhancement in [7] worked out at 6.3. Further, the “protection from the neurotoxic effects of Aβ oligomers and fibrils” value in the series on SH-SY5Y neuronal cell [8] was “protected from the neurotoxic effects of the Aβ oligomers and fibrils; also recorded: protective effect against the neurotoxic activities of the Aβ oligomers and fibrils”. The “targeting of / selectivity towards Aβ plaques in brain” value with Aβ plaques was “colocalization of fluorescence signals of SLOH and ThT; also recorded: colocalization of fluorescence signals of SLOH and Aβ antibody; also recorded: selectivity of SLOH towards Aβ plaques”. In the series with SH-SY5Y neuronal cell [6], the “toxicity (in words)” value is recorded as “non-toxic”. Besides, the Ffibril/FSLOH fluorescence enhancement on Aβ(1-40) fibrils was 81.5.
`COCCOCCn1c2ccccc2c2cc(/C=C/c3c4ccccc4[n+](CCO)c4ccccc34)ccc21.[I-]` [SAOH, (E)-10-(2-hydroxyethyl)-9-(2-(9-(2-(2-methoxyethoxy)ethyl)-9H-carbazol-3-yl)vinyl)-acridinium iodide]: in [3], the emission wavelength was around 760 nm. The “inhibition” value in series [1] is “inhibition of Aβ fibril formation; also recorded: inhibit Aβ peptide aggregation and prevent fibril growth; also recorded: potent inhibitor of Aβ aggregation”. Besides, the “protection from the neurotoxic effects of Aβ oligomers and fibrils” value in the series on SH-SY5Y neuronal cell [8] was “protected from the neurotoxic effects of the Aβ oligomers and fibrils; also recorded: protective effect against the neurotoxic activities of the Aβ oligomers and fibrils”. Further, the “toxicity (in words)” value in the series with SH-SY5Y neuronal cell [6] was “non-toxic”.

These data come from patent publication US9795694B2, “Imaging beta-amyloid peptides aggregation” (Hong Kong Baptist University, priority 2014, dated 2017).
